A short description of series [1]: Relative stability experiments: non-competitive and competitive interconversion of crystal forms of Compound 1. To be noted: for crystal form of the resulting material (pXRD, DSC, TGA, 1H-NMR): non-competitive, single starting form, refluxed in deionized water at about 95° C. for 3 hours. It counts as physicochemical. The procedure:
The relative stability of various crystal forms of Compound 1 were subjected to non-competitive and competitive interconversion experiments.
In Example 12a, Form A of Compound 1 (0.4 g) prepared according to Preparation Example 5c was refluxed in deionized water (4 mL) at about 95° C. for 3 hours. The slurry was cooled to 25-30° C., filtered, suction dried for 1 hour and dried in a vacuum oven at 70° C. and 8 kPa absolute pressure for 12 hours.
In Example 12b, Form B of Compound 1 (0.4 g) prepared according to Preparation Example 5f was refluxed in deionized water (4 mL) at about 95° C. for 3 hours. The slurry was cooled to 25-30° C., filtered, suction dried for 1 hour and dried in a vacuum oven at 70° C. and 8 kPa absolute pressure for 12 hours. Analysis by pXRD, DSC, TGA and ^1H-NMR of the resulting material indicated Form A.
In Example 12c, Form D of Compound 1 (0.4 g) prepared according to Preparation Example 5g was refluxed in deionized water (4 mL) at about 95° C. for 3 hours. The slurry was cooled to 25-30° C., filtered, suction dried for 1 hour and dried in a vacuum oven at 70° C. and 8 kPa absolute pressure for 12 hours. Analysis by pXRD, DSC, TGA and ^1H-NMR of the resulting material indicated Form A.
In Example 12d, Form TS of Compound 1 (1 g) prepared according to Preparation Example 1 was refluxed in deionized water (10 mL) at about 95° C. for 3 hours. The slurry was cooled to 25-30° C., filtered, suction dried for 1 hour and dried in a vacuum oven at 65° C. and 8 kPa absolute pressure for 12 hours. Analysis by pXRD, DSC, TGA and ^1H-NMR of the resulting material indicated Form A.
In Example 12e, Form A (0.6 g) and Form B (0.6 g) of Compound 1 prepared according to Preparation Examples 5c and 5f, respectively, were blended as solids and refluxed in deionized water (12 mL) at about 95° C. for 3 hours. The slurry was cooled to 25-30° C., filtered, suction dried for 1 hour and dried in a vacuum oven at 65° C. and 8 kPa absolute pressure for 12 hours. Analysis by pXRD, DSC, TGA and ^1H-NMR of the resulting material indicated Form A.
In Example 12f, Form B (0.6 g) and Form D (0.6 g) of Compound 1 prepared according to Preparation Examples 5f and 5g, respectively, were blended as solids and refluxed in deionized water (12 mL) at about 95° C. for 3 hours. The slurry was cooled to 25-30° C., filtered, suction dried for 1 hour and dried in a vacuum oven at 65° C. and 8 kPa absolute pressure for 12 hours. Analysis by pXRD, DSC and ^1H-NMR of the resulting material indicated Form A.
In Example 12g, Form A (0.6 g) and Form D (0.6 g) of Compound 1 prepared according to Preparation Examples 5c and 5g, respectively, were blended as solids and refluxed in deionized water (12 mL) at about 95° C. for 3 hours. The slurry was cooled to 25-30° C., filtered, suction dried for 1 hour and dried in a vacuum oven at 65° C. and 8 kPa absolute pressure for 12 hours. Analysis by pXRD, DSC and ^1H-NMR of the resulting material indicated Form A.
In Example 12h, Form A (0.25 g), Form B (0.25 g), Form D (0.25 g) and Form TS (0.25 g) of Compound 1 prepared according to Preparation Examples 5c, 5f, 5g, and 1, respectively, were blended as solids and refluxed in deionized water (10 mL) at about 95° C. for 3 hours. The slurry was cooled to 25-30° C., filtered, suction dried for 1 hour and dried in a vacuum oven at 65° C. and 8 kPa absolute pressure for 12 hours. Analysis by pXRD, DSC and ^1H-NMR of the resulting material indicated Form A.
In Example 12i, Form A (0.25 g), Form B (0.25 g), Form D (0.25 g) and mixed Forms A and B (0.25 g) of Compound 1 prepared according to Preparation Examples 5c, 5f, 5g and 2, respectively, were blended as solids and refluxed in deionized water (10 mL) at about 95° C. for 3 hours. The slurry was cooled to 25-30° C., filtered, suction dried for 1 hour and dried in a vacuum oven at 65° C. and 8 kPa absolute pressure for 12 hours. Analysis by pXRD, DSC and ^1H-NMR of the resulting material indicated Form A. […]

A short description of series [2]: Stability experiment for polymorph Form A of Compound 1 (stability chamber). The series is classed as physicochemical. The procedure:
The physical stability of Form A of Compound 1 was determined as follows. Compound 1 prepared according to Preparation Example 3 was analyzed by pXRD, DSC, HPLC and ^1H-NMR and found to be of pure crystal Form A of 99.9% purity (by HPLC peak area at 230 nm detection wavelength). An aliquot of the sample (3.0 g) was placed in a primary polyethylene bag, the primary bag was flushed with nitrogen gas and sealed. The primary polyethylene bag was then placed in a secondary polyethylene bag which was again flushed with nitrogen gas and a silica gel sachet was placed between the inner and the outer bag. The double bagged material was then placed in a triple laminated aluminum pouch and placed in a stability chamber at 40° C. for 30 days. Analysis by HPLC and ^1H-NMR of the resulting material indicated pure Form A of Compound 1 of 99.9% purity (by HPLC peak area at 230 nm).

The mark [3] stands for this setting: Example 12e, competitive: Form A + Form B blended, deionized water, about 95° C., 3 hours.
[4] abbreviates: Example 12g, competitive: Form A + Form D blended, deionized water, about 95° C., 3 hours.
[5] abbreviates: Example 12i, competitive: Forms A, B, D and mixed Forms A and B blended, deionized water, about 95° C., 3 hours.
The mark [6] stands for this setting: Example 12j, competitive: Forms A, B, D and mixed Forms A and B blended, methanol, about 55° C., 3 hours.
[7] abbreviates: Example 12k, competitive: Forms A, B and D blended, deionized water, about 55° C., 168 hours.
Where [8] appears, read: Example 12h, competitive: Forms A, B, D and TS blended, deionized water, about 95° C., 3 hours.
Setting [9] is: Example 12f, competitive: Form B + Form D blended, deionized water, about 95° C., 3 hours.

Five compounds from patent publication US9040554B2, “Solid forms of nematocidal sulfonamides” (priority 2011, dated 2015) can be followed below.

Regarding `COc1ccc(Cl)c(S(=O)(=O)NC(=O)c2cn3cc(C(F)(F)F)cc(Cl)c3n2)c1` [Form A, 8-chloro-N-[(2-chloro-5-methoxyphenyl)sulfonyl]-6-(trifluoromethyl)-imidazo[1,2-a]pyridine-2-carboxamide], the “crystal form of the resulting material” value in series [1] (setting [3]), in series [1] (setting [4]), in series [1] (setting [5]), in series [1] (setting [6]), in series [1] (setting [7]) and in series [1] (setting [8]) was “Form A” each time. The “crystal form of the resulting material (pXRD, DSC, TGA, 1H-NMR)” value (“crystal form … (pXRD, DSC, TGA, 1H-NMR)” for short) in series [1] is reported as “remained unchanged, i.e. Form A”. Also, the “relative thermodynamic stability of the solid forms, in words” value in series [1] (under the conditions studied) is “most thermodynamically stable polymorph form”. In addition, the “crystal form after storage (pXRD and DSC)” value in series [2] (40° C. for 30 days) is “pure polymorph Form A”. Also, in series [2] (40° C. for 30 days, sealed under nitrogen in double polyethylene bag and aluminum pouch), the “purity after storage (HPLC peak area at 230 nm)” value came out at 99.9%. Moreover, the “physical and chemical stability, in words” value in series [2] (pure solid form) was “physically and chemically stable”.
On to `COc1ccc(Cl)c(S(=O)(=O)NC(=O)c2cn3cc(C(F)(F)F)cc(Cl)c3n2)c1` [Form TS, 8-chloro-N-[(2-chloro-5-methoxyphenyl)sulfonyl]-6-(trifluoromethyl)-imidazo[1,2-a]pyridine-2-carboxamide], for which the “crystal form of the resulting material” value in series [1] (setting [8]) is given as “Form A”. The “crystal form … (pXRD, DSC, TGA, 1H-NMR)” value in series [1] was “Form A”.
As to `COc1ccc(Cl)c(S(=O)(=O)NC(=O)c2cn3cc(C(F)(F)F)cc(Cl)c3n2)c1` [Form D, 8-chloro-N-[(2-chloro-5-methoxyphenyl)sulfonyl]-6-(trifluoromethyl)-imidazo[1,2-a]pyridine-2-carboxamide], the “crystal form of the resulting material” value in series [1] (setting [9]), in series [1] (setting [4]), in series [1] (setting [5]), in series [1] (setting [6]), in series [1] (setting [7]) and in series [1] (setting [8]) was “Form A” each time. The “crystal form … (pXRD, DSC, TGA, 1H-NMR)” value in series [1] was “Form A”.
On to `COc1ccc(Cl)c(S(=O)(=O)NC(=O)c2cn3cc(C(F)(F)F)cc(Cl)c3n2)c1` [Form B, 8-chloro-N-[(2-chloro-5-methoxyphenyl)sulfonyl]-6-(trifluoromethyl)-imidazo[1,2-a]pyridine-2-carboxamide], for which the “crystal form of the resulting material” value in series [1] (setting [3]), in series [1] (setting [9]), in series [1] (setting [5]), in series [1] (setting [6]), in series [1] (setting [7]) and in series [1] (setting [8]) was “Form A” each time. Besides, the “crystal form … (pXRD, DSC, TGA, 1H-NMR)” value in series [1] is reported as “Form A”.
In the case of `COc1ccc(Cl)c(S(=O)(=O)NC(=O)c2cn3cc(C(F)(F)F)cc(Cl)c3n2)c1` [mixed Forms A and B, 8-chloro-N-[(2-chloro-5-methoxyphenyl)sulfonyl]-6-(trifluoromethyl)-imidazo[1,2-a]pyridine-2-carboxamide], the “crystal form of the resulting material” value in series [1] (setting [5]), in series [1] (setting [6]) and in series [1] (Example 12l: slurry in deionized water stirred at 25° C. for about 168 hours) was “Form A” each time.
